Laboratory results: US5681829A, “Class of phosphocholine derivatives having antifungal activity” (Shaman Pharmaceuticals, Inc., priority 1995, dated 1997)
Values after ≈ are worked out from the molar mass of the structure shown. Where two headings read alike, the source gives them in different places.

Tests used:
Format in all cases: cell-based
C. neoformans = test: antifungal screening test of analogs, C. neoformans (CN); details: for IC (25-75%): read-out: Partial inhibition
Experimental: (§1) The analog compounds were tested for their activity against C. albicans, C. neoformans, A. fumigatus and T. rubrum. Partial inhibition of the fungus of between 25 to 75% was measured along with the total inhibition (MIC) by these anolog compounds. A description of the partial inhibition measurement can be found in R. L. Stiller, et al The Journal of Infectious Diseases, 147, No. 6 (1983). The structure of these analog compounds is as follows. [drawing 15] wherein R is the group identified in table 2.

A. fumigatus = test: antifungal screening test of analogs, A. fumigatus (AF); details: for IC (25-75%): read-out: Partial inhibition
Experimental: as §1

T. rubrum = test: antifungal screening test of analogs, T. rubrum (TR); details: for IC (25-75%): read-out: Partial inhibition
Experimental: as §1

C. albicans = test: antifungal screening test of analogs, C. albicans (CA); details: for IC (25-75%): read-out: Partial inhibition
Experimental: as §1

fungi = test: antifungal activity stated in words

Compound	MIC (C. neoformans; Cryptococcus neoformans) [mg/L]	IC (25-75%) (C. neoformans; Cryptococcus neoformans) [µg/mL]	MIC (A. fumigatus; Aspergillus fumigatus) [mg/L]	IC (25-75%) (A. fumigatus; Aspergillus fumigatus) [µg/mL]	MIC (T. rubrum; Trichophyton rubrum) [mg/L]	IC (25-75%) (T. rubrum; Trichophyton rubrum) [µg/mL]	MIC (C. albicans; Candida albicans) [mg/L]	also measured
CCCCCCCCCC(=O)OC[C@@H](O)COP(=O)([O-])OCC[N+](C)(C)C [L-a-Lysophosphatidylcholine Decanoyl (C:10)]	500 (≈ 1220 µM)	250	> 500	> 500	> 500	> 500	> 500	IC (25-75%) (C. albicans; Candida albicans): 250 µg/mL
CCCCCCCC/C=C\CCCCCCCC(=O)OC[C@@H](O)COP(=O)([O-])OCC[N+](C)(C)C [L-a-Lysophosphatidylcholine Oleoyl (C18:1,[Cis]-9)]	31 (≈ 59.4 µM)		63 (≈ 121 µM)	31	31 (≈ 59.4 µM)		31 (≈ 59.4 µM)	
CCCCCCCCCCCC(=O)OC[C@@H](O)COP(=O)([O-])OCC[N+](C)(C)C [L-a-Lysophosphatidylcholine Lauroyl (C12:0)]	125 (≈ 284 µM)	31	125 (≈ 284 µM)		250 (≈ 569 µM)	63	500 (≈ 1140 µM)	
CCCCCCCCCCCCCCCC(=O)O[C@H](COC1O[C@H](CO)[C@@H](O)[C@H](O)[C@H]1O)COP(=O)([O-])OCC[N+](C)(C)C (some centres unmarked) [2-palmitoyl-1-O-glucopyranosyllysolecithin]								antifungal activity (fungi): relatively active antifungal agent similar in activity to L-a-Lysophosphatidyl inositol
CCCCCCCCCCCCCCCC(=O)OC[C@@H](O)COP(=O)([O-])OCC[N+](C)(C)C [L-a-Lysophosphatidylcholine Palmitoyl (C16:0)]	31 (≈ 62.5 µM)		63 (≈ 127 µM)	31	500 (≈ 1010 µM)	63	31 (≈ 62.5 µM)	
CCCCCCCCCCCCCCCCC(=O)OC[C@@H](O)COP(=O)([O-])OCC[N+](C)(C)C [L-a-Lysophosphatidylcholine Heptadecanoyl (C17:0)]								MIC (C. neoformans; Cryptococcus neoformans, CN, total inhibition, read-out: MIC): 16 mg/L (≈ 31.4 µM); IC (25-75%) (A. fumigatus; Aspergillus fumigatus, AF, partial inhibition of between 25 to 75%): 31 µg/mL; MIC (A. fumigatus; Aspergillus fumigatus, AF, total inhibition, read-out: MIC): > 1000 mg/L; IC (25-75%) (T. rubrum; Trichophyton rubrum, TR, partial inhibition of between 25 to 75%): 31 µg/mL; MIC (T. rubrum; Trichophyton rubrum, TR, total inhibition, read-out: MIC): 63 mg/L (≈ 124 µM); IC (25-75%) (C. albicans; Candida albicans, CA, partial inhibition of between 25 to 75%): 16 µg/mL; MIC (C. albicans; Candida albicans, CA, total inhibition, read-out: MIC): 63 mg/L (≈ 124 µM)
CCCCCCCCCCCCCC(=O)OC[C@@H](O)COP(=O)([O-])OCC[N+](C)(C)C [L-a-Lysophosphatidylcholine Myristoyl (C14:0)]	31 (≈ 66.3 µM)		125 (≈ 267 µM)	31	31 (≈ 66.3 µM)		31 (≈ 66.3 µM)	
C[N+](C)(C)CCOP(=O)([O-])OCCCCCCCCCCCCCCCCCCCCCCOP(=O)([O-])OCC[N+](C)(C)C [1,22-docosandiol bisphosphocholine ester]								antifungal activity (fungi): one of the most active antifungal compounds
CCCCCCCC/C=C\CCCCCCCC(=O)OC[C@@H](O)COP(=O)(O)OCCN [L-a-Lysophosphatidylethanol Amine, Oleoyl (C18:1,[cis]-9)]	> 100	100	> 100	> 100	> 100	> 100	> 100	IC (25-75%) (C. albicans; Candida albicans): > 100 µg/mL
L-a-Lysophosphatidyl inositol								Partial inhibition (C. neoformans; CN, partial inhibition of between 25 to 75%): 100 µg/mL; MIC (C. neoformans; CN, total inhibition): > 100 mg/L; MIC (A. fumigatus; AF, total inhibition): 100 mg/L; Partial inhibition (T. rubrum; TR, partial inhibition of between 25 to 75%): > 100 µg/mL; MIC (T. rubrum; TR, total inhibition): > 100 mg/L; Partial inhibition (C. albicans; CA, partial inhibition of between 25 to 75%): > 100 µg/mL; MIC (C. albicans; CA, total inhibition): > 100 mg/L
CCCCCCCCCCCCCCCCCC(=O)OC[C@@H](O)COP(=O)([O-])OCC[N+](C)(C)C [L-a-Lysophosphatidylcholine Stearoyl (C18:0)]	> 250	31	> 250	> 250	> 250	> 250	> 250	IC (25-75%) (C. albicans; Candida albicans): > 250 µg/mL
